In article PMC6389506 (Cell chemical biology, 2017):

Columns and labels:
CDK12 = CDK12 (Homo sapiens, UniProt Q9NYV4); assay: CE-MS intact mass shift and MS/MS of the labeled peptide; assay type: cell-based
CDK9 [1] = target: T1, CDK9 (Homo sapiens, UniProt P50750); assay: KINOMEscan profiling / biochemical kinase assay
CDK7 = CDK7 (Homo sapiens, UniProt P50613); assay: biochemical kinase inhibition
CDK9 [2] = target: T1, CDK9; assay: biochemical kinase inhibition
CDK2 = CDK2 (Homo sapiens, UniProt P24941); assay: biochemical kinase inhibition

T1 sequence (P50750 whole entry): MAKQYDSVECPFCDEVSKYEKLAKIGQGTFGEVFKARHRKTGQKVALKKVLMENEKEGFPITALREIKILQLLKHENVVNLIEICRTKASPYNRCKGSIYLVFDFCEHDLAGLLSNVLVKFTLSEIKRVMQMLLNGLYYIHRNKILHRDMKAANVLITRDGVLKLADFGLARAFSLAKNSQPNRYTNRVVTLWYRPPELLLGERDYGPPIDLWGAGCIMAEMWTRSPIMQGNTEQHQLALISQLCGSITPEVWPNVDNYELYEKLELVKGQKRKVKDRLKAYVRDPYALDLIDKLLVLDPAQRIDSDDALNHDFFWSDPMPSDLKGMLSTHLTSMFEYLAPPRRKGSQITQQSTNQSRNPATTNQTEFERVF
CDK12, sequence (Q9NYV4 whole entry): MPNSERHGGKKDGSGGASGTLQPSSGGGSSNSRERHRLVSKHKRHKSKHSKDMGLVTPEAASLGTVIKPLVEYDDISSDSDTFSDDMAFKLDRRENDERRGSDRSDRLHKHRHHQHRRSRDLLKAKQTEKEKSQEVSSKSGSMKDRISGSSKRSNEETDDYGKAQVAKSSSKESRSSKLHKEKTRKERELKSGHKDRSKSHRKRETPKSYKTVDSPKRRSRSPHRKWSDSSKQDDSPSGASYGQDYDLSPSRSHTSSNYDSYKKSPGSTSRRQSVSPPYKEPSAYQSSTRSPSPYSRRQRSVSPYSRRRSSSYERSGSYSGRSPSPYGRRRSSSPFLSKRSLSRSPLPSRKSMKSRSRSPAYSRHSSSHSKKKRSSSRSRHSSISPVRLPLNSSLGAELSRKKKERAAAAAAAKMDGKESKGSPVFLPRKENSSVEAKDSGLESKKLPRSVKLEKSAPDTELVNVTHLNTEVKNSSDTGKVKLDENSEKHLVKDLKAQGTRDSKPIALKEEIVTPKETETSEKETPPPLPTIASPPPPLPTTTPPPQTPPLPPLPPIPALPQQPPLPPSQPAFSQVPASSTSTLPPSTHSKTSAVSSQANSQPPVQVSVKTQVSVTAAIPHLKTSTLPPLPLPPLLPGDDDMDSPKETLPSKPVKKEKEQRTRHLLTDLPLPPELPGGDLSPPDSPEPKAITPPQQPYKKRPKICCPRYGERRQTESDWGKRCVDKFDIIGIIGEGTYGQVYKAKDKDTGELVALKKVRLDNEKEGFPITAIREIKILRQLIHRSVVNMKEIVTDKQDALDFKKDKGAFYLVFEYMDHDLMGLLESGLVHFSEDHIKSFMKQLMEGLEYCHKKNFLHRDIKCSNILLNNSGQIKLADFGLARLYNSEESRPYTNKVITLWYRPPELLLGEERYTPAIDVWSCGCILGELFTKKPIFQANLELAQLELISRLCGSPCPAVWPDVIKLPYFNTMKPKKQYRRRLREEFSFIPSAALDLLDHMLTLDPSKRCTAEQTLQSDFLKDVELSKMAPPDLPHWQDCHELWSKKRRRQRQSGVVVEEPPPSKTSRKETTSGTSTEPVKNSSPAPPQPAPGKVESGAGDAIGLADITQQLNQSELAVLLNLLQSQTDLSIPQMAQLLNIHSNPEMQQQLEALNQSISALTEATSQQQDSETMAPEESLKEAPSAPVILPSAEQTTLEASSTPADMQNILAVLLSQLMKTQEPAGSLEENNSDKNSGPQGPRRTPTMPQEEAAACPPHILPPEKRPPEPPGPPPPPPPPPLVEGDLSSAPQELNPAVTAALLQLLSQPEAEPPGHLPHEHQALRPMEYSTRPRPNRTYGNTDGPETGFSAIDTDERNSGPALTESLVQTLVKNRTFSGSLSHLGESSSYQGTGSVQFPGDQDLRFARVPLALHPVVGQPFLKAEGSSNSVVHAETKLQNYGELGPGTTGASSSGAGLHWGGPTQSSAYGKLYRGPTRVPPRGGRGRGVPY
CDK12, sequence (O75909 whole entry partner): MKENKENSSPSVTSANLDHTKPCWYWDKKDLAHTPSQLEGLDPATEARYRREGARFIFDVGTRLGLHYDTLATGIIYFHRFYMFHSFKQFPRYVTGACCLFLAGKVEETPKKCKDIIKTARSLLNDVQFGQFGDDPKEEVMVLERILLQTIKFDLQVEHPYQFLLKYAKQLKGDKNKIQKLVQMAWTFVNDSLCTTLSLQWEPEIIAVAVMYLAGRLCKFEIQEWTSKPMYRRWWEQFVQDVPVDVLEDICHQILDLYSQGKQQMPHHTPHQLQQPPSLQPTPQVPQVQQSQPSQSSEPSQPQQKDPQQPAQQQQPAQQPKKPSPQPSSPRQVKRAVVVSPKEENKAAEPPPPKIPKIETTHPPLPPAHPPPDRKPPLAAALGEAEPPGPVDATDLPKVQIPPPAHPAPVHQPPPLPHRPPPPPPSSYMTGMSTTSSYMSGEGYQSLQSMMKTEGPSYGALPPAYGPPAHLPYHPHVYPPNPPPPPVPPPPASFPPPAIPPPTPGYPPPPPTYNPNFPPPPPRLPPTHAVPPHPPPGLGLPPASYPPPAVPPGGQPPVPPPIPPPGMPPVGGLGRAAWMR
CDK7, sequence (P50613 2-346): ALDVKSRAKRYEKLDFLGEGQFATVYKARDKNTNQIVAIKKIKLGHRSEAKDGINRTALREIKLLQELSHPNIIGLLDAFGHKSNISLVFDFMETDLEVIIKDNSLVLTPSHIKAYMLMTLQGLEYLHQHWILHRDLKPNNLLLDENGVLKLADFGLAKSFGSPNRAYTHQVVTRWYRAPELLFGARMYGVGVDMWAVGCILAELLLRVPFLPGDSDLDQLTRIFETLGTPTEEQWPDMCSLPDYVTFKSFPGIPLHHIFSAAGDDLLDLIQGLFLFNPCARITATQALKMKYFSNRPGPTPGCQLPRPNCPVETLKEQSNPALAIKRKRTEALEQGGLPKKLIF
CDK7, sequence (P51946 whole entry partner): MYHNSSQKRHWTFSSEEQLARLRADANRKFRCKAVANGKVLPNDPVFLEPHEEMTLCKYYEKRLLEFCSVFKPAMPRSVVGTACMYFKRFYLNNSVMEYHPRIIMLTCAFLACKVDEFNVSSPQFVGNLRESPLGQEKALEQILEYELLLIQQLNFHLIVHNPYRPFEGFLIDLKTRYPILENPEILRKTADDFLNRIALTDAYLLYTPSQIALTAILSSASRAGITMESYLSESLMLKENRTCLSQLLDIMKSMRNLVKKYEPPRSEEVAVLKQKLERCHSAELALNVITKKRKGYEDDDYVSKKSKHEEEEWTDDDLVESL

CE-MS intact mass shift and MS/MS of the labeled peptide; bio-THZ1 competition p (CDK12) [nM]	Structure (SMILES)	KINOMEscan profiling / biochemical kinase assay (CDK9 [1])	biochemical kinase inhibition (CDK7)	biochemical kinase inhibition (CDK9 [2])	biochemical kinase inhibition (CDK2)
< 25	C=CC(=O)Nc1cccc(Nc2cc(N3CCCC[C@H]3CCO)nc3c(CC)cnn23)c1 [E9, (S)-N-(3-(3-Ethyl-5-(2-(2-Hydroxyethyl)piperidin-1-yl)pyrazolo[1,5-a]pyrimidin-7-ylamino)phenyl)acrylamide]	E9 still retained fairly strong biochemical activity against CDK9			
	CCC(=O)Nc1cccc(Nc2cc(N3CCCC[C@H]3CCO)nc3c(CC)cnn23)c1 [E9-R, (S)-N-(3-((3-Ethyl-5-(2-(2-Hydroxyethyl)piperidin-1-yl)pyrazolo[1,5-a]pyrimidin-7-yl)amino)phenyl)propionamide]		E9-R exhibited improved biochemical inhibition of CDK2, CDK7, and CDK9 compared with E9	E9-R exhibited improved biochemical inhibition of CDK2, CDK7, and CDK9 compared with E9	E9-R exhibited improved biochemical inhibition of CDK2, CDK7, and CDK9 compared with E9
